Data set [1] relates to immortalized human sebocytes in culture, derived from the SZ95 line. The data set is described as follows: Lipogenesis test: lipid content of sebocytes in culture by Nile red fluorescence. The class given is cell-based. The following applies: for LIPID VARIATION (relative to the control): treatment for 2 days, neutral lipids, Nile red. The protocol:
The activity of the compounds (2c) and (1e) described above was tested on a model of immortalized human sebocytes in culture, derived from the SZ95 line described in Zouboulis, C. C., Seltmann, H., Neitzel, H. & Orfanos, C. E., Establishment and Characterization of an Immortalized Human Sebaceous Gland Cell Line, J. Invest. Dermatol., 113, 1011–1020 (1999).
The test consisted in measuring the amount of lipids produced by the sebocytes of the line (at confluence), in the presence or absence of an active agent, diluted in DMSO, such that the final amount of DMSO in the culture medium is 0.1%. After treatment for 2 days, the adherent cells are treated with Nile red (1 μg/ml). The lipid content is then quantified by measuring the fluorescence of the dye (excitation/emission couple: 485–540 nm for the neutral lipids).
The tests are performed in sextuplicate and the experiment is repeated four times.

The test system is the same in data set [2]. Briefly: Proliferation tests (MUH) and cell viability tests (LDH) run in parallel. The class given is cell-based. From the text:
In parallel, proliferation tests (MUH) and cell viability tests (LDH) make it possible to check that the, effects obtained are not associated with an appreciable change in these biological parameters.

With `O=C1c2c(O)cccc2S(=O)(=O)N1c1ccccc1` [(1e), 4-hydroxy-2-phenyl-1,2-benzisothiazol-3(2H)-one 1,1-dioxide], the “LIPID VARIATION (relative to the control)” value is “+39%” in data set [1] (concentration 10^−4 M) and “+16%” in data set [1] (concentration 10^−6 M). The Proliferation/cytotoxicity result in data set [2] (concentration 10^−4 M) and in data set [2] (concentration 10^−6 M) was “no” in each case.

For `COc1ccc(N2C(=O)c3c(OC)cccc3S2(=O)=O)cc1` [(2c), 4-methoxy-2-(4-methoxyphenyl)-1,2-benzisothiazol-3(2H)-one 1,1-dioxide], the “LIPID VARIATION (relative to the control)” value in data set [1] (concentration 10^−6 M) is “+43%”. In addition, in data set [2] (concentration 10^−6 M), the Proliferation/cytotoxicity entry is recorded as “no”.

Turning to `C[C@]12CC[C@H](O)CC1=CC[C@@H]1[C@@H]2CC[C@]2(C)C(=O)CC[C@@H]12` [DHEA, reference compound], in data set [1] (concentration 10^−5 M, same test), the “increase in the lipid content of the sebum” value is on record as 13%.

The values above are taken from US7232839B2, “Benzoisothiazolone compositions” (L'Oreal, priority 2004, dated 2007).
